PubChem BioAssay AID248 (DTP/NCI, 2004)
Values joined by “and” are separate entries in the source; they are usually repeats but may differ in a detail not shown here. Equal entries are not always repeated. Toxic doses and inconclusive results are not listed. No stated cut-off is given here; in the data, active means T/C of 150% or more; inactive means T/C below 125%.

System: L1210 leukemia ip in BDF1 mice, survival T/C
Test: NCI In Vivo Anticancer Drug Screen. Data for tumor model L1210 Leukemia (intraperitoneal) in B6D2F1 (BDF1) mice
Details: endpoint: mean survival time, higher = longer survival
Summary of the method: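 Ratio derived from survival: compound-dosed mice over vehicle-dosed mice, all bearing a transplantable tumor.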

[1] = dose: 100.0 mg/kg/injection, schedule: Q01DX009 (ip), vehicle: Klucel (hydroxypropylcellulose) (HPC)
[2] = dose: 100.0 mg/kg/injection, schedule: Q04DX003 (ip), vehicle: Klucel (hydroxypropylcellulose) (HPC)
[3] = dose: 200.0 mg/kg/injection, schedule: Q01DX009 (ip), vehicle: Klucel (hydroxypropylcellulose) (HPC)
[4] = dose: 200.0 mg/kg/injection, schedule: Q04DX003 (ip), vehicle: Klucel (hydroxypropylcellulose) (HPC)
[5] = dose: 400.0 mg/kg/injection, schedule: Q01DX009 (ip), vehicle: Klucel (hydroxypropylcellulose) (HPC)
[6] = dose: 400.0 mg/kg/injection, schedule: Q04DX003 (ip), vehicle: Klucel (hydroxypropylcellulose) (HPC)
[7] = dose: 100.0 mg/kg/injection, schedule: Q01DX009 (ip), vehicle: saline with Tween-80
[8] = dose: 100.0 mg/kg/injection, schedule: Q04DX003 (ip), vehicle: saline with Tween-80
[9] = dose: 200.0 mg/kg/injection, schedule: Q01DX009 (ip), vehicle: saline with Tween-80
[10] = dose: 400.0 mg/kg/injection, schedule: Q01DX009 (ip), vehicle: saline with Tween-80
[11] = dose: 12.5 mg/kg/injection, schedule: Q01DX009 (ip), vehicle: saline with Tween-80
[12] = dose: 25.0 mg/kg/injection, schedule: Q01DX009 (ip), vehicle: saline with Tween-80
[13] = dose: 30.0 mg/kg/injection, schedule: Q01DX Z (ip), vehicle: saline

Measured: T/C

O=C1CC(Cl)C(=O)N1c1ccccc1 (configuration not stated)
inactive: dose: 75.0 mg/kg/injection, schedule: Q01DX009 (ip), vehicle: saline with Tween-80 112 % of control | dose: 75.0 mg/kg/injection, schedule: Q04DX003 (ip), vehicle: saline with Tween-80 96 % of control | dose: 150.0 mg/kg/injection, schedule: Q01DX009 (ip), vehicle: saline with Tween-80 102 % of control | dose: 150.0 mg/kg/injection, schedule: Q04DX003 (ip), vehicle: saline with Tween-80 102 % of control | dose: 300.0 mg/kg/injection, schedule: Q04DX003 (ip), vehicle: saline with Tween-80 101 % of control

CCOC(=O)NC(CC)CO (configuration not stated)
inactive: [1] 96 % of control | [2] 96 % of control | [3] 92 % of control | [4] 104 % of control | [5] 108 % of control | [6] 96 % of control

COc1ccc(OC(=O)Nc2ccc(Cl)cc2[N+](=O)[O-])cc1
inactive: [7] 95 % of control and 96 % of control | dose: 100.0 mg/kg/injection, schedule: Q04DX002 (ip), vehicle: saline with Tween-80 95 % of control and 98 % of control | [8] 97 % of control | [9] 99 % of control and 106 % of control | dose: 200.0 mg/kg/injection, schedule: Q04DX002 (ip), vehicle: saline with Tween-80 95 % of control and 101 % of control | dose: 200.0 mg/kg/injection, schedule: Q04DX003 (ip), vehicle: saline with Tween-80 110 % of control | [10] 99 % of control and 103 % of control | dose: 400.0 mg/kg/injection, schedule: Q04DX002 (ip), vehicle: saline with Tween-80 95 % of control and 98 % of control | dose: 400.0 mg/kg/injection, schedule: Q04DX003 (ip), vehicle: saline with Tween-80 100 % of control

COc1cc(/C=N/NC(=O)c2ccccc2Cl)ccc1O
inactive: [11] 91 % of control | [12] 88 % of control | dose: 50.0 mg/kg/injection, schedule: Q01DX009 (ip), vehicle: saline with Tween-80 95 % of control and 97 % of control

CC(=O)Oc1ccc2c3c(cccc13)CC2
inactive: [7] 97 % of control | [9] 96 % of control | [10] 92 % of control

C=CS(=O)(=O)c1ccc(N)cc1
inactive: [1] 103 % of control | [3] 95 % of control

NC1=C(Cl)C(=O)c2ccccc2C1=O
inactive: dose: 25.0 mg/kg/injection, schedule: Q04DX003 (ip), vehicle: saline with Tween-80 100 % of control | dose: 50.0 mg/kg/injection, schedule: Q04DX003 (ip), vehicle: saline with Tween-80 101 % of control | [8] 90 % of control

c1ccc(Nc2nnnn2C2CCCCC2)cc1
inactive: dose: 100.0 mg/kg/injection, schedule: Q01DX001 (ip), vehicle: saline with Tween-80 104 % of control | dose: 200.0 mg/kg/injection, schedule: Q01DX001 (ip), vehicle: saline with Tween-80 95 % of control | dose: 400.0 mg/kg/injection, schedule: Q01DX001 (ip), vehicle: saline with Tween-80 93 % of control

CC(CO)(CO)N=Cc1ccc(N(CCCl)CCCl)cc1
inactive: dose: 100.0 mg/kg/injection, schedule: Q01DX001 (ip), vehicle: carboxymethylcellulose (CMC) 106 % of control | dose: 200.0 mg/kg/injection, schedule: Q01DX001 (ip), vehicle: carboxymethylcellulose (CMC) 97 % of control | dose: 400.0 mg/kg/injection, schedule: Q01DX001 (ip), vehicle: carboxymethylcellulose (CMC) 101 % of control

O=C(NCCCCCCNC(=O)OCc1ccccc1)OCc1ccccc1
inactive: dose: 10.0 mg/kg/injection, schedule: Q01DX Z (ip), vehicle: saline 98 % of control | [13] 96 % of control | dose: 100.0 mg/kg/injection, schedule: Q01DX Z (ip), vehicle: saline 100 % of control | dose: 300.0 mg/kg/injection, schedule: Q01DX Z (ip), vehicle: saline 98 % of control

C/C(=N/N=C(N)N)c1cccnc1
inactive: dose: 15.0 mg/kg/injection, schedule: Q01DX Z (ip), vehicle: saline 106 % of control | [13] 106 % of control | dose: 60.0 mg/kg/injection, schedule: Q01DX Z (ip), vehicle: saline 108 % of control | dose: 120.0 mg/kg/injection, schedule: Q01DX Z (ip), vehicle: saline 93 % of control

C(=P(c1ccccc1)(c1ccccc1)c1ccccc1)[P+](c1ccccc1)(c1ccccc1)c1ccccc1.[Cl][Fe]([Cl])([Cl])[Br]
inactive: dose: 0.39 mg/kg/injection, schedule: Q01DX009 (ip), vehicle: Klucel (hydroxypropylcellulose) (HPC) 119 % of control | dose: 0.78 mg/kg/injection, schedule: Q01DX009 (ip), vehicle: Klucel (hydroxypropylcellulose) (HPC) 112 % of control | dose: 1.56 mg/kg/injection, schedule: Q01DX009 (ip), vehicle: Klucel (hydroxypropylcellulose) (HPC) 97 % of control and 102 % of control

OCCN1CCN(CC/C=C2/c3ccccc3Sc3ccc(C(F)(F)F)cc32)CC1
inactive: dose: 0.78 mg/kg/injection, schedule: Q03HX024 (ip), vehicle: saline 94 % of control | dose: 1.56 mg/kg/injection, schedule: Q03HX024 (ip), vehicle: saline 103 % of control | dose: 2.0 mg/kg/injection, schedule: Q01DX009 (ip), vehicle: saline 89 % of control | dose: 2.5 mg/kg/injection, schedule: Q01DX009 (ip), vehicle: saline 114 % of control | dose: 3.12 mg/kg/injection, schedule: Q03HX024 (ip), vehicle: saline 105 % of control | dose: 4.0 mg/kg/injection, schedule: Q01DX009 (ip), vehicle: saline 98 % of control | dose: 5.0 mg/kg/injection, schedule: Q01DX009 (ip), vehicle: saline 103 % of control | dose: 6.25 mg/kg/injection, schedule: Q04DX003 (ip), vehicle: saline 101 % of control | dose: 8.0 mg/kg/injection, schedule: Q01DX009 (ip), vehicle: saline 93 % of control | dose: 10.0 mg/kg/injection, schedule: Q01DX009 (ip), vehicle: saline 116 % of control | dose: 10.0 mg/kg/injection, schedule: Q04DX003 (ip), vehicle: saline 115 % of control | dose: 12.5 mg/kg/injection, schedule: Q04DX003 (ip), vehicle: saline 110 % of control | dose: 18.75 mg/kg/injection, schedule: Q01DX001 (ip), vehicle: saline 107 % of control | dose: 20.0 mg/kg/injection, schedule: Q01DX009 (ip), vehicle: saline 95 % of control | dose: 37.5 mg/kg/injection, schedule: Q01DX001 (ip), vehicle: saline 117 % of control | dose: 50.0 mg/kg/injection, schedule: Q04DX003 (ip), vehicle: saline 121 % of control

CCC(CC)(COC(N)=O)COC(N)=O
inactive: dose: 25.0 mg/kg/injection, schedule: Q04DX003 (ip), vehicle: Klucel (hydroxypropylcellulose) (HPC) 98 % of control | dose: 50.0 mg/kg/injection, schedule: Q04DX003 (ip), vehicle: Klucel (hydroxypropylcellulose) (HPC) 93 % of control | [2] 98 % of control | [4] 95 % of control | [6] 93 % of control

CCCCC1C/C=C/C=C/C=C/C=C/C(OC2OC(C)C(O)C(N)C2O)CC2OC(O)(CC(O)CC3OC3/C=C/C(=O)O1)CC(O)C2C(=O)O (configuration not stated)
inactive: [2] 96 % of control | [4] 98 % of control | [6] 107 % of control

COc1ccc2nc3cc(Cl)ccc3c(NCCNCCNCCNc3c4ccc(Cl)cc4nc4ccc(OC)cc34)c2c1
inactive: dose: 6.25 mg/kg/injection, schedule: Q01DX009 (ip), vehicle: saline with Tween-80 100 % of control | [11] 91 % of control | [12] 101 % of control | [7] 107 % of control

CCCCCCCCCCCCCCCCS(=O)(=O)c1ccc(NN)cc1
inactive: [1] 89 % of control | [2] 97 % of control | [3] 91 % of control | [4] 98 % of control | [5] 90 % of control | [6] 105 % of control
